We go through 1 molecule from patent publication US20210253454A1, “MICELLAR DELIVERY METHOD” (EVONIK OPERATIONS GMBH, priority 2018, published 2021).

Data set [1] is described as follows: Oxidizer (PAA, hydrogen peroxide) concentration in treatment solution during biofilm test. In kind it is physicochemical. As to conditions: initial 100 ppm. Here is the method: (§1) Upon completion of the biofilm growth phase, the coupons were removed and rinsed by immersion into 30 mL dilution buffer. Coupons were placed into sterile centrifuge test tubes and 4 mL biocide or buffer were added. Then the tubes were vortexed on low speed to ensure complete coverage of the coupon. At the appropriate time, the biocide was poured off, and reserved for chemical analysis of PAA and hydrogen peroxide. Then, a 10 mL aliquot of chemical neutralizing Letheen broth with 0.5% sodium thiosulfate was added to each tube. One treated coupon from each treatment group was removed at final time point for visual analysis.
PAA and Hydrogen peroxide concentrations were monitored during the test by using Chemetrics test kits K-7913F and K-5543.
We further evaluated the biocidal activity of PAA-surfactant solutions on microbial biofilms using a CDC Biofilm reactor from BioSurface Technologies as described in Example 9. The three biocide solutions were also as described in Example 9, but the contact time was increased to about 72 hours under agitation. Additionally, for this test, the biocide aliquot was increased from the standard method amount of 4 mL up to 30 mL. These adjustments were made to more accurately simulate expected field conditions. The recovery was performed as described in the Example 8. […] Chemical analysis indicated only a slight reduction in concentrations of both PAA and hydrogen peroxide over the 72-hour time period.

For data set [2], the system named is Pseudomonas aeruginosa (ATCC 15442) biofilm. The data set is described as follows: Biocidal activity on biofilm, CDC Biofilm reactor, glass coupons, 1-4 hrs. In kind it is cell-based. The following applies: initial 100 ppm.
Excerpt: We evaluated the biocidal activity of PAA-surfactant solutions on microbial biofilms using a CDC Biofilm reactor from BioSurface Technologies. This reactor supplies a continuous flow of nutrient broth through a container that exposes bacteria growing on glass coupons to shear forces. The setup mimics at least two features typical for oilfield operations: a renewable nutrient source and shear forces applied to the biofilms. All reactor parts were cleaned with a solution of 1% Neutrad lab soap and rinsed well with deionized water, and allowed to dry prior to autoclaving on a 20 minutes gravity cycle to sterilize.
Pseudomonas aeruginosa (ATCC 15442) biofilm was grown for 48 hours in the biofilm reactor on glass coupons at 25° C. A solution containing 300 mg/L of sterile trypticase soy broth (TSB) was used as nutrient feed. 1 mL of the working inoculum of P. aeruginosa was added through the inoculation port. The first step was a 24 hours batch phase followed by 24 hours in continuous flow mode, when 100 mg/L TSB solution was pumped into the stirring reactor for about 24 hours at room temperature to create a matured biofilm on the coupon surfaces.
as §1
The compositions were diluted with deionized water before use, such that the initial concentration of PAA-surfactant active ingredient was 100 ppm.
In order to recover remaining viable bacteria from the coupons, the test tubes with coupons were vortexed for 30 s on highest setting, and then sonicated for 30 s at 45 kHz. This treatment was then repeated twice. After that, the broth was diluted serially into Butterfield's buffer, and the dilutions plated on 3M™ Petrifilm™ Aerobic Count Plates. The plates were incubated for 48 hours at 35° C., and then counted. Calculations were performed to obtain the Log10 CFU/mL of the solutions at each time point.

As to `CC(=O)OO` [PAA, peracetic acid], the “H2O2, ppm” value in data set [1] (1 hrs) is 35 ppm; in data set [1] (2 hrs), 27 ppm; in data set [1] (4 hrs), 10 ppm. Besides, the “PAA, ppm” value in data set [1] (1 hrs) was found to be 63 ppm; in data set [1] (2 hrs), 54 ppm; in data set [1] (4 hrs) it was 30 ppm. Further, the Log10 reduction in data set [2] (1 hrs) was found to be 1.4 Log10; in data set [2] (2 hrs) it was 2.2 Log10; in data set [2] (4 hrs) it was 3.1 Log10. The results for the Log10 remaining in data set [2] (1 hrs), in data set [2] (2 hrs) and in data set [2] (4 hrs) were 7.8 Log10 CFU/mL, 7.0 Log10 CFU/mL and 6.1 Log10 CFU/mL, respectively.
